Tested on: patients with fasting triglyceride levels >200 mg/dl and <500 mg/dl despite statin therapy
Assay: 12-week study: lipid profile (TC, LDL-C, HDL-C, non-HDL-C, VLDL-C, VLDL-TG, RLP-C)
Type: in vivo, human
Conditions: for Non-HDL-C, Diff from pbo (Hodges-Lehmann median difference) / Non-HDL-C, EOT (Week 12 endpoint) median / LDL-C Median % chg from BL / LDL-C, Diff from pbo (Hodges-Lehmann median difference) / LDL-C, EOT (Week 12 endpoint) median / Non-HDL-C Median % chg from BL / LDL-C Diff from pbo (median % chg, Hodges-Lehmann) / LDL-C EOT Median / Non-HDL-C Diff from pbo (median % chg, Hodges-Lehmann) / Non-HDL-C EOT Median: AMR 101 4 g + statin
From the text: Parameters (a)-(z) can be measured in accordance with any clinically acceptable methodology. For example, triglycerides, total cholesterol, HDL-C and fasting blood sugar can be sample from serum and analyzed using standard photometry techniques. VLDL-TG, LDL-C and VLDL-C can be calculated or determined using serum lipoprotein fractionation by preparative ultracentrifugation and subsequent quantitative analysis by refractometry or by analytic ultracentrifugal methodology. Apo A1, Apo B and hsCRP can be determined from serum using standard nephelometry techniques. Lipoprotein (a) can be determined from serum using standard turbidimetric immunoassay techniques. LDL particle number and particle size can be determined using nuclear magnetic resonance (NMR) spectrometry. Remnants lipoproteins and LDL-phospholipase A2 can be determined from EDTA plasma or serum and serum, respectively, using enzymatic immunoseparation techniques. Oxidized LDL, intercellular adhesion molecule-1 and interleukin-2 levels can be determined from serum using standard enzyme immunoassay techniques. These techniques are described in detail in standard textbooks, for example Tietz Fundamentals of Clinical Chemistry, 6th Ed. (Burtis, Ashwood and Borter Eds.), WB Saunders Company.
A multi-center, placebo-controlled, randomized, double-blind, 12-week study was performed to evaluate the efficacy and safety of >96% E-EPA in patients with fasting triglyceride levels >200 mg/dl and <500 mg/dl despite statin therapy (the mean of two qualifying entry values needed to be >185 mg/dl and at least one of the values needed to be >200 mg/dl). The primary objective of the study was to determine the efficacy of >96% E-EPA 2 g daily and 4 g daily, compared to placebo, in lowering fasting TG levels in patients with high risk for cardiovascular disease and with fasting TG levels 200 mg/dl and <500 mg/dl, despite treatment to LDL-C goal on statin therapy.
The secondary objectives of this study were the following: • 1. To determine the safety and tolerability of >96% E-EPA 2 g daily and 4 g daily; • 2. To determine the effect of >96% E-EPA on lipid and apolipoprotein profiles including total cholesterol (TC), non-high-density lipoprotein cholesterol (non-HDL-C), low density lipoprotein cholesterol (LDL-C), high density lipoprotein cholesterol (HDL-C), and […]; • 3. To determine the effect of >96% E-EPA on lipoprotein associated phospholipase A2 (Lp-PLA2) from baseline to week 12; • 4. To determine the effect of >96% E-EPA on low-density lipoprotein (LDL) particle number and size; • 5. To determine the effect of >96% E-EPA on oxidized LDL; • 6. To determine the effect of >96% E-EPA on fasting plasma glucose (FPG) and hemoglobin A1c (HbA1c); • 7. To determine the effect of >96% E-EPA on insulin resistance; • 8. To determine the effect of >96% E-EPA on high-sensitivity C-reactive protein (hsCRP); • 9. To determine the effects of >96% E-EPA 2 g daily and 4 g daily on the incorporation of fatty acids into red blood cell membranes and into plasma phospholipids; • 10. To explore the relationship between baseline fasting TG levels and the reduction in fasting TG levels; and • 11. To explore the relationship between changes of fatty acid concentrations in plasma and red blood cell membranes, and the reduction in fasting TG levels.
The primary efficacy variable for the double-blind treatment period was percent change in TG from baseline to Week 12 endpoint. […]

[1] = Diabetes No, Week 12 endpoint, MITT
[2] = Diabetes Yes, Week 12 endpoint, MITT
[3] = Non-statin Washout No, Week 12 endpoint, MITT
[4] = Non-statin Washout Yes, Week 12 endpoint, MITT
[5] = baseline TG tertile Highest (≥289.5 mg/dL), Week 12 endpoint, MITT
[6] = baseline TG tertile Lowest (<230.5 mg/dL), Week 12 endpoint, MITT
[7] = baseline TG tertile Middle (230.5 to <289.5 mg/dL), Week 12 endpoint, MITT
[8] = AMR101 4 g/d + statin, Week 12 endpoint, MITT
[9] = AMR101 4 g/d + statin, percent change from baseline to Week 12 endpoint, MITT
[10] = IPE 4 g/day (n = 216), 12 weeks, patients with lipoprotein data
[11] = IPE 4 g/day vs placebo, 12 weeks, Hodges-Lehmann median

CC/C=C\C/C=C\C/C=C\C/C=C\C/C=C\CCCC(=O)OCC [AMR101, ethyl eicosapentaenoate]
Non-HDL-C, Diff from pbo (Hodges-Lehmann median difference) (Atorva subgroup, MITT): −13.5
Non-HDL-C, EOT (Week 12 endpoint) median (Atorva subgroup, MITT): 122.0
LDL-C Median % chg from BL (Rosuva subgroup, MITT): −3.8%
LDL-C, Diff from pbo (Hodges-Lehmann median difference) (Rosuva subgroup, MITT): −14.8
LDL-C, EOT (Week 12 endpoint) median (Rosuva subgroup, MITT): 82.5
Non-HDL-C Median % chg from BL (Rosuva subgroup, MITT): −5.5%
Non-HDL-C, Diff from pbo (Hodges-Lehmann median difference) (Rosuva subgroup, MITT): −20.0
Non-HDL-C, EOT (Week 12 endpoint) median (Rosuva subgroup, MITT): 118.0
LDL-C Median % chg from BL (Simva subgroup, MITT): 1.5%
LDL-C, Diff from pbo (Hodges-Lehmann median difference) (Simva subgroup, MITT): −5.4
LDL-C, EOT (Week 12 endpoint) median (Simva subgroup, MITT): 83.0
Non-HDL-C Median % chg from BL (Simva subgroup, MITT): −4.3%
Non-HDL-C, Diff from pbo (Hodges-Lehmann median difference) (Simva subgroup, MITT): −11.1
Non-HDL-C, EOT (Week 12 endpoint) median (Simva subgroup, MITT): 125.0
LDL-C Median % chg from BL (Statin Potency High, MITT): 5.4%
LDL-C, Diff from pbo (Hodges-Lehmann median difference) (Statin Potency High, MITT): −2.9
LDL-C, EOT (Week 12 endpoint) median (Statin Potency High, MITT): 82.0
Non-HDL-C Median % chg from BL (Statin Potency High, MITT): −6.3%
Non-HDL-C, Diff from pbo (Hodges-Lehmann median difference) (Statin Potency High, MITT): −15.8
Non-HDL-C, EOT (Week 12 endpoint) median (Statin Potency High, MITT): 118
LDL-C Median % chg from BL (Statin Potency Low, MITT): 7.8%
LDL-C, Diff from pbo (Hodges-Lehmann median difference) (Statin Potency Low, MITT): 12.4
LDL-C, EOT (Week 12 endpoint) median (Statin Potency Low, MITT): 84.5
Non-HDL-C Median % chg from BL (Statin Potency Low, MITT): −1.4%
Non-HDL-C, Diff from pbo (Hodges-Lehmann median difference) (Statin Potency Low, MITT): 2.4
Non-HDL-C, EOT (Week 12 endpoint) median (Statin Potency Low, MITT): 131
LDL-C Median % chg from BL (Statin Potency Medium, MITT): −2.2%
LDL-C, Diff from pbo (Hodges-Lehmann median difference) (Statin Potency Medium, MITT): −10.0
LDL-C, EOT (Week 12 endpoint) median (Statin Potency Medium, MITT): 84.0
Non-HDL-C Median % chg from BL (Statin Potency Medium, MITT): −4.3%
Non-HDL-C, Diff from pbo (Hodges-Lehmann median difference) (Statin Potency Medium, MITT): −13.9
Non-HDL-C, EOT (Week 12 endpoint) median (Statin Potency Medium, MITT): 124
LDL-C Diff from pbo (median % chg, Hodges-Lehmann) [1]: −5.3%
LDL-C EOT Median [1]: 83.5 mg/dL
LDL-C Median % chg from BL [1]: 1.4%
Non-HDL-C Diff from pbo (median % chg, Hodges-Lehmann) [1]: −11.3′ %
Non-HDL-C EOT Median [1]: 126 mg/dL
Non-HDL-C Median % chg from BL [1]: −0.9%
LDL-C Diff from pbo (median % chg, Hodges-Lehmann) [2]: −6.3%
LDL-C EOT Median [2]: 83.0 mg/dL
LDL-C Median % chg from BL [2]: 2.0%
Non-HDL-C Diff from pbo (median % chg, Hodges-Lehmann) [2]: −14.4%
Non-HDL-C EOT Median [2]: 121 mg/dL
Non-HDL-C Median % chg from BL [2]: −5.5%
LDL-C Diff from pbo (median % chg, Hodges-Lehmann) [3]: −5.1%
LDL-C EOT Median [3]: 83.5 mg/dL
LDL-C Median % chg from BL [3]: 2.5%
Non-HDL-C Diff from pbo (median % chg, Hodges-Lehmann) [3]: −4.8%
Non-HDL-C EOT Median [3]: 122 mg/dL
Non-HDL-C Median % chg from BL [3]: −4.9%
LDL-C Diff from pbo (median % chg, Hodges-Lehmann) [4]: −7.5%
LDL-C EOT Median [4]: 80.0 mg/dL
LDL-C Median % chg from BL [4]: −1.4%
Non-HDL-C Diff from pbo (median % chg, Hodges-Lehmann) [4]: −14.4%
Non-HDL-C EOT Median [4]: 124 mg/dL
Non-HDL-C Median % chg from BL [4]: −5.4%
LDL-C Diff from pbo (median % chg, Hodges-Lehmann) [5]: 0%
LDL-C EOT Median [5]: 83.0
LDL-C Median % chg from BL [5]: 4.8%
Non-HDL-C Diff from pbo (median % chg, Hodges-Lehmann) [5]: −17.6%
Non-HDL-C EOT Median [5]: 130
Non-HDL-C Median % chg from BL [5]: −6.9%
LDL-C Diff from pbo (median % chg, Hodges-Lehmann) [6]: −12.2%
LDL-C EOT Median [6]: 83.0
LDL-C Median % chg from BL [6]: −3.9%
Non-HDL-C Diff from pbo (median % chg, Hodges-Lehmann) [6]: −13.8%
Non-HDL-C EOT Median [6]: 118
Non-HDL-C Median % chg from BL [6]: −2.0%
LDL-C Diff from pbo (median % chg, Hodges-Lehmann) [7]: −5.8%
LDL-C EOT Median [7]: 82.5
LDL-C Median % chg from BL [7]: 2.1%
Non-HDL-C Diff from pbo (median % chg, Hodges-Lehmann) [7]: −9.5%
Non-HDL-C EOT Median [7]: 124
Non-HDL-C Median % chg from BL [7]: −4.0%
HDL-C Week 12 EP Median (IQR) (AMR101 4 g/d + statin, MITT): 37.0 (13.0) mg/dL
LDL-C Week 12 EP Median (IQR) (AMR101 4 g/d + statin, MITT): 83.0 (31.0) mg/dL
Non-HDL-C Week 12 EP Median (IQR) (AMR101 4 g/d + statin, MITT): 122.0 (39.0) mg/dL
RLP-C Week 12 EP Median (IQR) (AMR101 4 g/d + statin, MITT): 10.0 (6.0) mg/dL
Total cholesterol Week 12 EP Median (IQR) (AMR101 4 g/d + statin, MITT): 162.0 (38.0) mg/dL
VLDL-C Week 12 EP Median (IQR) (AMR101 4 g/d + statin, MITT): 38.0 (22.0) mg/dL
VLDL-TG Week 12 EP Median (IQR) (AMR101 4 g/d + statin, MITT): 147.0 (88.0) mg/dL
HDL-C Percent change from Baseline Median (IQR) [8]: −1.0 (18.2) %
LDL-C Percent change from Baseline Median (IQR) [8]: 1.5 (26.6) %
Non-HDL-C Percent change from Baseline Median (IQR) [8]: −5.0 (21.3) %
RLP-C Percent change from Baseline Median (IQR) [8]: −24.0 (45.5) %
Total cholesterol Percent change from Baseline Median (IQR) [8]: −3.2 (16.8) %
VLDL-C Percent change from Baseline Median (IQR) [8]: −12.1 (47.9) %
VLDL-TG Percent change from Baseline Median (IQR) [8]: −19.2 (46.2) %
HDL-C Difference from placebo Estimated median [9]: −4.5%
LDL-C Difference from placebo Estimated median [9]: −6.2%
Non-HDL-C Difference from placebo Estimated median [9]: −13.6%
RLP-C Difference from placebo Estimated median [9]: −25.8%
Total cholesterol Difference from placebo Estimated median [9]: −12.0%
VLDL-C Difference from placebo Estimated median [9]: −24.4%
VLDL-TG Difference from placebo Estimated median [9]: −26.5%
HDL-C, Change From Baseline, % (median) [10]: −2.2%
HDL-C, End of Treatment (median) [10]: 36.5 mg/dL
LDL-C, Change From Baseline, % (median) [10]: 2.1%
LDL-C, End of Treatment (median) [10]: 83.0 mg/dL
Non-HDL-C, Change From Baseline, % (median) [10]: −5.1%
Non-HDL-C, End of Treatment (median) [10]: 122.0 mg/dL
HDL-C, Median Change From Baseline IPE 4 g/day vs Placebo, % [11]: −5.0%
LDL-C, Median Change From Baseline IPE 4 g/day vs Placebo, % [11]: −5.2%
Non-HDL-C, Median Change From Baseline IPE 4 g/day vs Placebo, % [11]: −13.5%
